This note sets out measurements from patent US20150166625A1 (Sanofi, priority 2013, published 2015).

The test system of this assay is female diabetic dbdb-mice. In words: Glucose lowering in female diabetic dbdb-mice. As to conditions: 100 μg/kg s.c. Format: in vivo, mouse. Here is the method:
Female diabetic dbdb-mice (BKS.Cg-+Leprdb/+Leprdb/OlaHsd) 10 weeks of age at study start were used. Mice were habituated to feeding and housing conditions for at least 2 weeks. 7 days prior to study start, HbA1c were determined to allocate mice to groups, aiming to spread low, medium and high HbA1c-values and in consequence the group-means (n=8), as equally as possible. On the day of study, food was removed, directly before sampling for baseline glucose assessment (t=0 min). Immediately afterwards, compounds or vehicle (phosphor buffered saline, PBS) were administered subcutaneously, 100 μg/kg, 10 ml/kg. Afterwards, blood samples were drawn by tail tip incision at 15, 30, 60, 90, 120, 150, 180, 240, 360, 480 min and 24 h. Food was re-offered after the 480 min-sampling.
Data were analysed by 2-W-ANOVA on repeated measurements, followed by Dunnett's test as post-hoc assessment, level of significance p<0.05.

On to “HSHGTFTSDLSKQLDEQLAKDFIEWLIAGGPSSGAPPPS-NH2 [SEQ ID NO: 10]”, for which the “reduction of glucose compared to vehicle control” value (female db/db mice, from t=60 min until 240 min, p<0.05) is “statistical significant reduction of glucose”.
Take “H-Aib-HGTFTSDLSKQLDEQLAKDFIEWLIAGGPSSGAPPPS-NH2 [SEQ ID NO: 9]”: the “maximal effect, glucose reduction” value (non-fasted female db/db mice, baseline on average 28 mmol/l) was around 12 mmol/L.
